Data published in US20260022142A1, “MACROCYCLIC IMMUNOMODULATORS” (Bristol-Myers Squibb Company, priority 2022, published 2026).
Bridge positions count the residues as written; N and C are the ends. Square brackets hold non-standard residues; d marks the D form. Peptide text beside a SMILES is read from it. * marks the point of attachment. Phe(4-COOH) = N[C@@H](Cc1ccc(C(=O)O)cc1)C(=O)O; Bip = N[C@@H](Cc1ccc(-c2ccccc2)cc1)C(=O)O; NH(CH2)14COOH = O=C(O)CCCCCCCCCCCCCCN*; Phe(3-Me) = Cc1cccc(C[C@H](N)C(=O)O)c1; NH(CH2)12COOH = O=C(O)CCCCCCCCCCCCN*; Val(3-OH) = CC(C)(O)[C@H](N)C(=O)O; 4Pal = N[C@@H](Cc1ccncc1)C(=O)O; Cha = N[C@@H](CC1CCCCC1)C(=O)O; Carboxymethyl = O=C(O)C*; Orn = NCCC[C@H](N)C(=O)O; Aun = NCCCCCCCCCCC(=O)O; Dab = NCC[C@H](N)C(=O)O; Nva = CCC[C@H](N)C(=O)O; Dap = NC[C@H](N)C(=O)O; AEEA = NCCOCCOCC(=O)O

Target: T1, PD-1/PD-L1 interaction (PE-labeled human PD-L1-Ig binding to Jurkat cell line over-expressing human PD-1) (Homo sapiens, UniProt Q15116)
T1 construct: expressed in transfected cells; host or cells: Jurkat
Assay: Jurkat-PD-1 Cell Binding High-Content Screening Assay (CBA)
Assay type: cell-based
Conditions: Jurkat cell line over-expressing human PD-1; PE-labeled PD-L1-Ig 20 nM final; read-out: Jurkat hPD1-PDL1 IC50
Summary of the method: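 First, compound is added to PD-1-expressing Jurkat cells in serum-containing DMEM and left 2 h at 37° C. Next, PE-conjugated PD-L1-Ig is introduced at 20 nM final concentration for 1 hour. Finally, cells are fixed in 4% paraformaldehyde with Hoechst 33342, washed and imaged.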

T1 sequence (Q15116 25-288): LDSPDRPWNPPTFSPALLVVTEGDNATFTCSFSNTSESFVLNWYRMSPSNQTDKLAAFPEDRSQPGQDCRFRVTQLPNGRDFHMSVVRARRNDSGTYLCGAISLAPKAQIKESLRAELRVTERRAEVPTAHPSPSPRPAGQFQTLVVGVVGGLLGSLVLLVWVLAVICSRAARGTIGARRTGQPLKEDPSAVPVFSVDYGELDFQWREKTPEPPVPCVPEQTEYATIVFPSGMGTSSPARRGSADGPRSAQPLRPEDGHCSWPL

| SMILES | IC50 |
| --- | --- |
| Cc1cccc(C[C@@H]2NC(=O)[C@H](CC(=O)O)NC(=O)[C@H](Cc3ccc(OCC(=O)O)cc3)NC(=O)[C@H](CCCNC(=N)N)NC(=O)CSC[C@@H](C(=O)N[C@@H](CCN)C(=O)NCCCCCCCCCCC(=O)O)NC(=O)[C@H]([C@@H](C)O)NC(=O)[C@H](C(C)C)NC(=O)[C@H](CC3CCCCC3)NC(=O)[C@H](CCN)NC(=O)[C@@H](CC(C)C)NC(=O)[C@H](CCCN)NC(=O)[C@H](CCC(N)=O)NC(=O)[C@H](Cc3ccc(-c4ccccc4)cc3)NC(=O)[C@H](Cc3ccc(OCC(=O)O)cc3)NC2=O)c1 [Compound 2854] ({CH2CO}-RY(Carboxymethyl)D[Phe(3-Me)]Y(Carboxymethyl)[Bip]Q[Orn][dL][Dab][Cha]VTC[Dab][Aun]-OH; thioether N-14) | 16.8 nM |
| Cc1cccc(C[C@@H]2NC(=O)[C@H](CC(=O)O)NC(=O)[C@H](Cc3ccc(OCC(=O)O)cc3)NC(=O)[C@H](CCCNC(=N)N)NC(=O)CSC[C@@H](C(=O)N[C@@H](CCCN)C(=O)NCCCCCCCCCCC(=O)O)NC(=O)[C@H](CCC(N)=O)NC(=O)[C@H](C(C)C)NC(=O)[C@H](CC3CCCCC3)NC(=O)[C@H](CCN)NC(=O)[C@@H](CC(C)C)NC(=O)[C@H](CCN)NC(=O)[C@H](Cc3ccc(OCC(=O)O)cc3)NC(=O)[C@H](Cc3ccc(-c4ccccc4)cc3)NC(=O)[C@H](Cc3ccc(OCC(=O)O)cc3)NC2=O)c1 [Compound 2855] ({CH2CO}-RY(Carboxymethyl)D[Phe(3-Me)]Y(Carboxymethyl)[Bip]Y(Carboxymethyl)[Dab][dL][Dab][Cha]VQC[Orn][Aun]-OH; thioether N-14) | 19.6 nM |
| Cc1cccc(C[C@@H]2NC(=O)[C@H](CC(=O)O)NC(=O)[C@H](Cc3ccc(OCC(=O)O)cc3)NC(=O)[C@H](CN)NC(=O)CSC[C@@H](C(=O)N[C@@H](CCCN)C(=O)NCCCCCCCCCCC(=O)O)NC(=O)[C@H](CCC(=O)O)NC(=O)[C@H](C(C)C)NC(=O)[C@H](CC3CCCCC3)NC(=O)[C@H](CCN)NC(=O)[C@@H](CC(C)C)NC(=O)[C@H](CCN)NC(=O)[C@H](Cc3ccc(OCC(=O)O)cc3)NC(=O)[C@H](Cc3ccc(-c4ccccc4)cc3)NC(=O)[C@H](Cc3ccc(OCC(=O)O)cc3)NC2=O)c1 [Compound 2856] ({CH2CO}-[Dap]Y(Carboxymethyl)D[Phe(3-Me)]Y(Carboxymethyl)[Bip]Y(Carboxymethyl)[Dab][dL][Dab][Cha]VEC[Orn][Aun]-OH; thioether N-14) | 19.7 nM |
| Cc1cccc(C[C@@H]2NC(=O)[C@H](CC(=O)O)NC(=O)[C@H](Cc3ccc(OCC(=O)O)cc3)NC(=O)[C@H](CN)NC(=O)CSC[C@@H](C(=O)N[C@@H](CCCN)C(=O)NCCCCCCCCCCC(=O)O)NC(=O)[C@H](CCC(N)=O)NC(=O)[C@H](C(C)C)NC(=O)[C@H](CC3CCCCC3)NC(=O)[C@H](CCN)NC(=O)[C@@H](CC(C)C)NC(=O)[C@H](CCN)NC(=O)[C@H](Cc3ccc(OCC(=O)O)cc3)NC(=O)[C@H](Cc3ccc(-c4ccccc4)cc3)NC(=O)[C@H](Cc3ccc(OCC(=O)O)cc3)NC2=O)c1 [Compound 2857] ({CH2CO}-[Dap]Y(Carboxymethyl)D[Phe(3-Me)]Y(Carboxymethyl)[Bip]Y(Carboxymethyl)[Dab][dL][Dab][Cha]VQC[Orn][Aun]-OH; thioether N-14) | 35 nM |
| Cc1cccc(C[C@@H]2NC(=O)[C@H](CC(=O)O)NC(=O)[C@H](Cc3ccc(OCC(=O)O)cc3)NC(=O)[C@H](CN)NC(=O)CSC[C@@H](C(=O)N[C@@H](CCN)C(=O)NCCCCCCCCCCC(=O)O)NC(=O)[C@H](CCCN)NC(=O)[C@H](C(C)C)NC(=O)[C@H](CC3CCCCC3)NC(=O)[C@H](CCN)NC(=O)[C@@H](CC(C)C)NC(=O)[C@H](CCCN)NC(=O)[C@H](Cc3ccc(OCC(=O)O)cc3)NC(=O)[C@H](Cc3ccc(-c4ccccc4)cc3)NC(=O)[C@H](Cc3ccc(O)cc3)NC2=O)c1 [Compound 2858] ({CH2CO}-[Dap]Y(Carboxymethyl)D[Phe(3-Me)]Y[Bip]Y(Carboxymethyl)[Orn][dL][Dab][Cha]V[Orn]C[Dab][Aun]-OH; thioether N-14) | 11.9 nM |

Second part, the molecule after the results:

| IC50 | SMILES |
| --- | --- |
| 7.8 nM | Cc1cccc(C[C@@H]2NC(=O)[C@H](CC(=O)O)NC(=O)[C@H](Cc3ccc(OCC(=O)O)cc3)NC(=O)[C@H](CN)NC(=O)CSC[C@@H](C(=O)N[C@@H](CCN)C(=O)NCCOCCOCC(=O)NCCCCCCCCCCC(=O)O)NC(=O)[C@H](CCCN)NC(=O)[C@H](C(C)C)NC(=O)[C@H](CC3CCCCC3)NC(=O)[C@H](CCN)NC(=O)[C@@H](CC(C)C)NC(=O)[C@H](CCCN)NC(=O)[C@H](Cc3ccc(OCC(=O)O)cc3)NC(=O)[C@H](Cc3ccc(-c4ccccc4)cc3)NC(=O)[C@H](Cc3ccc(O)cc3)NC2=O)c1 [Compound 2859] ({CH2CO}-[Dap]Y(Carboxymethyl)D[Phe(3-Me)]Y[Bip]Y(Carboxymethyl)[Orn][dL][Dab][Cha]V[Orn]C[Dab][AEEA][Aun]-OH; thioether N-14) |
| 11.2 nM | Cc1cccc(C[C@@H]2NC(=O)[C@H](CC(=O)O)NC(=O)[C@H](Cc3ccc(OCC(=O)O)cc3)NC(=O)[C@H](CN)NC(=O)CSC[C@@H](C(=O)N[C@@H](CCN)C(=O)NCCOCCOCC(=O)NCCCCCCCCCCC(=O)O)NC(=O)[C@H](CCCN)NC(=O)[C@H](C(C)C)NC(=O)[C@H](CC3CCCCC3)NC(=O)[C@H](CCN)NC(=O)[C@@H](CC(C)C)NC(=O)[C@H](CCCN)NC(=O)[C@H](Cc3ccc(OCC(=O)O)cc3)NC(=O)[C@H](Cc3ccc(-c4ccccc4)cc3)NC(=O)[C@H](Cc3ccc(OCC(=O)O)cc3)NC2=O)c1 [Compound 2860] ({CH2CO}-[Dap]Y(Carboxymethyl)D[Phe(3-Me)]Y(Carboxymethyl)[Bip]Y(Carboxymethyl)[Orn][dL][Dab][Cha]V[Orn]C[Dab][AEEA][Aun]-OH; thioether N-14) |
| 228 nM | Cc1cccc(C[C@@H]2NC(=O)[C@H](CC(=O)O)NC(=O)[C@H](Cc3ccc(OCC(=O)O)cc3)NC(=O)[C@H](Cc3ccncc3)NC(=O)CSC[C@@H](C(=O)N[C@@H](CCN)C(=O)NCCOCCOCC(=O)NCCCCCCCCCCC(=O)O)NC(=O)[C@H](CO)NC(=O)[C@H](C(C)(C)O)NC(=O)[C@H](CC3CCCCC3)NC(=O)[C@H](CCN)NC(=O)[C@@H](CC(C)C)NC(=O)[C@H](CCCN)NC(=O)[C@H](Cc3ccc(C(=O)O)cc3)NC(=O)[C@H](Cc3ccc(-c4ccccc4)cc3)NC(=O)[C@H](Cc3ccc(C(=O)O)cc3)NC2=O)c1 [Compound 2862] ({CH2CO}-[4Pal]Y(Carboxymethyl)D[Phe(3-Me)][Phe(4-COOH)][Bip][Phe(4-COOH)][Orn][dL][Dab][Cha][Val(3-OH)]SC[Dab][AEEA][Aun]-OH; thioether N-14) |
| 8.7 nM | Cc1cccc(C[C@@H]2NC(=O)[C@H](CC(=O)O)NC(=O)[C@H](Cc3ccc(OCC(=O)O)cc3)NC(=O)[C@H](CCCNC(=N)N)NC(=O)CSC[C@@H](C(=O)N[C@@H](CCN)C(=O)NCCCCCCCCCCC(=O)O)NC(=O)[C@H](CCC(=O)O)NC(=O)[C@H](C(C)(C)O)NC(=O)[C@H](CC3CCCCC3)NC(=O)[C@H](CCN)NC(=O)[C@@H](CC(C)C)NC(=O)[C@H](CCCN)NC(=O)[C@H](Cc3ccc(OCC(=O)O)cc3)NC(=O)[C@H](Cc3ccc(-c4ccccc4)cc3)NC(=O)[C@H](Cc3ccc(OCC(=O)O)cc3)NC2=O)c1 [Compound 2863] ({CH2CO}-RY(Carboxymethyl)D[Phe(3-Me)]Y(Carboxymethyl)[Bip]Y(Carboxymethyl)[Orn][dL][Dab][Cha][Val(3-OH)]EC[Dab][Aun]-OH; thioether N-14) |
| 3.3 nM | Cc1cccc(C[C@@H]2NC(=O)[C@H](CC(=O)O)NC(=O)[C@H](Cc3ccc(OCC(=O)O)cc3)NC(=O)[C@H](CCCNC(=N)N)NC(=O)CSC[C@@H](C(=O)N[C@@H](CCN)C(=O)NCCCCCCCCCCC(=O)O)NC(=O)[C@H](CC(=O)O)NC(=O)[C@H](C(C)(C)O)NC(=O)[C@H](CC3CCCCC3)NC(=O)[C@H](CCN)NC(=O)[C@@H](CC(C)C)NC(=O)[C@H](CCCN)NC(=O)[C@H](Cc3ccc(OCC(=O)O)cc3)NC(=O)[C@H](Cc3ccc(-c4ccccc4)cc3)NC(=O)[C@H](Cc3ccc(OCC(=O)O)cc3)NC2=O)c1 [Compound 2864] ({CH2CO}-RY(Carboxymethyl)D[Phe(3-Me)]Y(Carboxymethyl)[Bip]Y(Carboxymethyl)[Orn][dL][Dab][Cha][Val(3-OH)]DC[Dab][Aun]-OH; thioether N-14) |
| 101 nM | CCC[C@@H]1NC(=O)CSC[C@@H](C(=O)N[C@@H](CCN)C(=O)NCCOCCOCC(=O)NCCOCCOCC(=O)NCCCCCCCCCCCCCCC(=O)O)NC(=O)[C@H](CO)NC(=O)[C@H](C(C)(C)O)NC(=O)[C@H](CC2CCCCC2)NC(=O)[C@H](CCN)NC(=O)[C@@H](CC(C)C)NC(=O)[C@H](CCCN)NC(=O)[C@H](Cc2ccc(OCC(=O)O)cc2)NC(=O)[C@H](Cc2ccc(-c3ccccc3)cc2)NC(=O)[C@H](Cc2ccc(OCC(=O)O)cc2)NC(=O)[C@H](Cc2cccc(C)c2)NC(=O)[C@H](CC(=O)O)NC(=O)[C@H](Cc2ccc(OCC(=O)O)cc2)NC1=O [Compound 2866] ({CH2CO}-[Nva]Y(Carboxymethyl)D[Phe(3-Me)]Y(Carboxymethyl)[Bip]Y(Carboxymethyl)[Orn][dL][Dab][Cha][Val(3-OH)]SC[Dab][AEEA][AEEA]-{NH(CH2)14COOH}; thioether N-14) |
| 11.1 nM | CCC[C@@H]1NC(=O)CSC[C@@H](C(=O)N[C@@H](CCN)C(=O)NCCOCCOCC(=O)NCCCCCCCCCCCCC(=O)O)NC(=O)[C@H](CO)NC(=O)[C@H](C(C)(C)O)NC(=O)[C@H](CC2CCCCC2)NC(=O)[C@H](CCN)NC(=O)[C@@H](CC(C)C)NC(=O)[C@H](CCCN)NC(=O)[C@H](Cc2ccc(OCC(=O)O)cc2)NC(=O)[C@H](Cc2ccc(-c3ccccc3)cc2)NC(=O)[C@H](Cc2ccc(OCC(=O)O)cc2)NC(=O)[C@H](Cc2cccc(C)c2)NC(=O)[C@H](CC(=O)O)NC(=O)[C@H](Cc2ccc(OCC(=O)O)cc2)NC1=O [Compound 2867] ({CH2CO}-[Nva]Y(Carboxymethyl)D[Phe(3-Me)]Y(Carboxymethyl)[Bip]Y(Carboxymethyl)[Orn][dL][Dab][Cha][Val(3-OH)]SC[Dab][AEEA]-{NH(CH2)12COOH}; thioether N-14) |
